# Laboratory results published in patent US20120309750A1, “5-MEMBERED HETEROCYCLE DERIVATIVES AND MANUFACTURING PROCESS THEREOF” (ILDONG PHARM CO., LTD., priority 2010, published 2012).
# How the values were obtained:
# yeast HSP90 = yeast HSP90 (Saccharomyces cerevisiae, UniProt P02829); assay: Hsp90 ATPase assay (malachite green); format: biochemical
# Method: (§1) For present invention, the ATPase activity of yeast HSP90 was measured using malachite green assay. Formula I compounds for primary antitumoral activity were treated in human colorectal cancer cells (HCT116) showing increased expression levels of HSP90 client protein and cotoxicity IC50 values was measured as a result.
# [1] = system: human colorectal cancer cells (HCT116); assay: Growth inhibition assay (cytotoxicity) in HCT116; format: cell-based; conditions: HCT-116
# Method: as §1
# Sequence of yeast HSP90 (P02829 whole entry): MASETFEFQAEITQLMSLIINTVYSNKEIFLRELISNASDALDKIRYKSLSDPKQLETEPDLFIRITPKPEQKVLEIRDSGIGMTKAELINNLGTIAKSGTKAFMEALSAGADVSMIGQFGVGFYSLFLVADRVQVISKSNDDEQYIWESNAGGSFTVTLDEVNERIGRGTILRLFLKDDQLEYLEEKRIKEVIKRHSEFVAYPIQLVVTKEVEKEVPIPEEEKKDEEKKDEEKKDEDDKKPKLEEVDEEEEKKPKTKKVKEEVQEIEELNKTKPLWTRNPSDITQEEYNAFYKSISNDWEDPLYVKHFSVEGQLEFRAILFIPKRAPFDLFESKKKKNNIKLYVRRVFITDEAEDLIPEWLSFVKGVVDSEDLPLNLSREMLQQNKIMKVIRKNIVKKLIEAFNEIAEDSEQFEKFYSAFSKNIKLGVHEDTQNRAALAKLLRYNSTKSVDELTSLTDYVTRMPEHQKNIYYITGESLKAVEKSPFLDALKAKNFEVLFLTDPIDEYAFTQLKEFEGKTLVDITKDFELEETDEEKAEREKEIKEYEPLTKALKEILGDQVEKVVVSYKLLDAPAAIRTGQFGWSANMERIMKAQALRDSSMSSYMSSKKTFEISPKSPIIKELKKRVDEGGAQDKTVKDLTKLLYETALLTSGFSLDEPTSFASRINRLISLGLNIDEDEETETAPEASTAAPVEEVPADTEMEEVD
IC50 (yeast HSP90) [nM],SMILES,IC50 [1] [nM]
500 to 1000,"CCNC(=O)c1noc(-c2cc(C(C)C)c(O)cc2O)c1-c1cc[nH]n1 [Compound I-96, 5-(2,4-Dihydroxy-5-isopropylphenyl)-N-ethyl-4-(1H-pyrazol-3-yl)isoxazole-3-carboxamide]",< 500
500 to 1000,"CCNC(=O)c1noc(-c2cc(C(C)C)c(O)cc2O)c1-c1cnn(C(C)C)c1 [Compound I-105, 5-(2,4-Dihydroxy-5-isopropylphenyl)-N-ethyl-4-(1-isopropyl-1H-pyrazol-4-yl)isoxazole-3-carboxamide]",< 500
500 to 1000,"CCNC(=O)c1noc(-c2cc(C(C)C)c(O)cc2O)c1-c1noc(-c2ccc(OC)cc2)n1 [Compound I-84, 5-(2,4-Dihydroxy-5-isopropylphenyl)-N-ethyl-4-(5-(4-methoxyphenyl)-1,2,4-oxadiazol-3-yl)isoxazole-3-carboxamide]",500 to 1000
< 500,"CCNC(=O)c1noc(-c2cc(C(C)C)c(O)cc2O)c1-c1noc(N)n1 [Compound I-78, 4-(5-Amino-1,2,4-oxadiazol-3-yl)-5-(2,4-dihydroxy-5-isopropylphenyl)-N-ethylisoxazole-3-carboxamide]",< 500
500 to 1000,"CCNC(=O)c1noc(-c2cc(C(C)C)c(O)cc2O)c1-c1cc(C(=O)N2CCSCC2)no1 [Compound I-50, 5-(2,4-Dihydroxy-5-isopropylphenyl)-N-ethyl-3′-(thiomorpholine-4-carbonyl)-4,5′-biisoxazole-3-carboxamide]",< 500
< 500,"CCNC(=O)c1noc(-c2cc(C(C)C)c(O)cc2O)c1-c1nnnn1CC [Compound I-13, 5-(2,4-Dihydroxy-5-isopropylphenyl)-N-ethyl-4-(1-ethyl-1H-tetrazol-5-yl)isoxazole-3-carboxamide]",< 500
< 500,"CCNC(=O)c1noc(-c2cc(C(C)C)c(O)cc2O)c1-c1cc(/C=N/OC)no1 [Compound I-52, 5-(2,4-Dihydroxy-5-isopropylphenyl)-N-ethyl-3′-((methoxyimino)methyl)-4,5′-biisoxazole-3-carboxamide]",< 500
< 500,"CCNC(=O)c1noc(-c2cc(C(C)C)c(O)cc2O)c1-c1cc(CN2CCSCC2)no1 [Compound I-47, 5-(2,4-Dihydroxy-5-isopropylphenyl)-N-ethyl-3′-(thiomorpholinomethyl)-4,5′-biisoxazole-3-carboxamide]",< 500
< 500,"CCNC(=O)c1noc(-c2cc(C(C)C)c(O)cc2O)c1-c1cc(C(OC)OC)no1 [Compound I-51, 5-(2,4-Dihydroxy-5-isopropylphenyl)-3′-(dimethoxymethyl)-N-ethyl-4,5′-biisoxazole-3-carboxamide]",< 500
< 500,"CCNC(=O)c1noc(-c2cc(C(C)C)c(O)cc2O)c1-c1noc(SC)n1 [Compound I-87, 5-(2,4-Dihydroxy-5-isopropylphenyl)-N-ethyl-4-(5-(methylthio)-1,2,4-oxadiazol-3-yl)isoxazole-3-carboxamide]",500 to 1000
< 500,"CCNC(=O)c1noc(-c2cc(C(C)C)c(O)cc2O)c1-c1noc(C(C)C)n1 [Compound I-65, 5-(2,4-Dihydroxy-5-isopropylphenyl)-N-ethyl-4-(5-isopropyl-1,2,4-oxadiazol-3-yl)isoxazole-3-carboxamide]",< 500
< 500,"CCCN(CCC)Cc1cc(-c2c(C(=O)NCC)noc2-c2cc(C(C)C)c(O)cc2O)on1 [Compound I-45, 5-(2,4-Dihydroxy-5-isopropylphenyl)-3′-((dipropylamino)methyl)-N-ethyl-4,5′-biisoxazole-3-carboxamide]",< 500
500 to 1000,"C=CCO/N=C/c1cc(-c2c(C(=O)NCC)noc2-c2cc(C(C)C)c(O)cc2O)on1 [Compound I-54, 3′-((Allyloxyimino)methyl)-5-(2,4-dihydroxy-5-isopropylphenyl)-N-ethyl-4,5′-biisoxazole-3-carboxamide]",< 500
> 1000,"CC(C)c1cc(-c2onc(CO)c2-c2ccsc2)c(O)cc1O [Compound I-3, 4-(3-(Hydroxymethyl)-4-(thiophen-3-yl)isoxazol-5-yl)-6-isopropylbenzene-1,3-diol]",> 1000
< 500,"CCNC(=O)c1noc(-c2cc(C(C)C)c(O)cc2O)c1-c1cc(CN(CC)CC)no1 [Compound I-20, 3′-((Diethylamino)methyl)-5-(2,4-dihydroxy-5-isopropylphenyl)-N-ethyl-4,5′-biisoxazole-3-carboxamide]",< 500
500 to 1000,"CCNC(=O)c1noc(-c2cc(C(C)C)c(O)cc2O)c1-c1nnn[nH]1 [Compound I-10, 5-(2,4-Dihydroxy-5-isopropylphenyl)-N-ethyl-4-(1H-tetrazol-5-yl)isoxazole-3-carboxamide]",> 1000

IC50 (yeast HSP90) [nM],SMILES,IC50 [1] [nM]
< 500,"CCNC(=O)c1noc(-c2cc(C(C)C)c(O)cc2O)c1-c1cc(COCC(N)=O)no1 [Compound I-36, 3′-((2-Amino-2-oxoethoxy)methyl)-5-(2,4-dihydroxy-5-isopropylphenyl)-N-ethyl-4,5′-biisoxazole-3-carboxamide]",< 500
500 to 1000,"CCNC(=O)c1noc(-c2cc(Cl)c(O)cc2O)c1-c1cc(CO)no1 [Compound I-24, 5-(5-Chloro-2,4-dihydroxyphenyl)-N-ethyl-3′-(hydroxymethyl)-4,5′-biisoxazole-3-carboxamide]",> 1000
500 to 1000,"CCNC(=O)c1noc(-c2cc(C(C)C)c(O)cc2O)c1-c1noc(C(F)(F)F)n1 [Compound I-57, 5-(2,4-Dihydroxy-5-isopropylphenyl)-N-ethyl-4-(5-(trifluoromethyl)-1,2,4-oxadiazol-3-yl)isoxazole-3-carboxamide]",< 500
500 to 1000,"CCNC(=O)c1noc(-c2cc(C(C)C)c(O)cc2O)c1-c1noc(N2CCOCC2)n1 [Compound I-73, 5-(2,4-Dihydroxy-5-isopropylphenyl)-N-ethyl-4-(5-morpholino-1,2,4-oxadiazol-3-yl)isoxazole-3-carboxamide]",< 500
< 500,"CCNC(=O)c1noc(-c2cc(C(C)C)c(O)cc2O)c1-c1cc(CN(C)C)no1 [Compound I-41, 5-(2,4-Dihydroxy-5-isopropylphenyl)-3′-((dimethylamino)methyl)-N-ethyl-4,5′-biisoxazole-3-carboxamide]",< 500
> 1000,"CCC(=O)NCc1noc(-c2cc(C(C)C)c(O)cc2O)c1-c1ccsc1 [Compound I-4, N-((5-(2,4-Dihydroxy-5-isopropylphenyl)-4-(thiophen-3-yl)isoxazol-3-yl)methyl)propionamide]",> 1000
< 500,"CCNC(=O)c1noc(-c2cc(C(C)C)c(O)cc2O)c1-c1nnn(CC)n1 [Compound I-14, 5-(2,4-Dihydroxy-5-isopropylphenyl)-N-ethyl-4-(2-ethyl-2H-tetrazol-5-yl)isoxazole-3-carboxamide]",< 500
< 500,"CCNC(=O)c1noc(-c2cc(C(C)C)c(O)cc2O)c1-c1cnn(C)c1 [Compound I-102, 5-(2,4-Dihydroxy-5-isopropylphenyl)-N-ethyl-4-(1-methyl-1H-pyrazol-4-yl)isoxazole-3-carboxamide]",< 500
< 500,"CCNC(=O)c1noc(-c2cc(C(C)C)c(O)cc2O)c1-c1noc(N(CC)CC)n1 [Compound I-76, 4-(5-(Diethylamino)-1,2,4-oxadiazol-3-yl)-5-(2,4-dihydroxy-5-isopropylphenyl)-N-ethylisoxazole-3-carboxamide]",< 500
500 to 1000,"CCNC(=O)c1noc(-c2cc(C(C)C)c(O)cc2O)c1-c1cc(C(N)=O)no1 [Compound I-21, 5-(2,4-Dihydroxy-5-isopropylphenyl)-N^3-ethyl-4,5′-biisoxazole-3,3′-dicarboxamide]",< 500
500 to 1000,"CCNC(=O)c1noc(-c2cc(C(C)C)c(O)cc2O)c1-c1noc(C2CCCCC2)n1 [Compound I-89, 4-(5-Cyclohexyl-1,2,4-oxadiazol-3-yl)-5-(2,4-dihydroxy-5-isopropylphenyl)-N-ethylisoxazole-3-carboxamide]",< 500
< 500,"CCNC(=O)c1noc(-c2cc(C(C)C)c(O)cc2O)c1-c1nnnn1C [Compound I-11, 5-(2,4-Dihydroxy-5-isopropylphenyl)-N-ethyl-4-(1-methyl-1H-tetrazol-5-yl)isoxazole-3-carboxamide]",< 500
500 to 1000,"CCNC(=O)c1noc(-c2cc(C(C)C)c(O)cc2O)c1-c1ccn(C(C)C)n1 [Compound I-100, 5-(2,4-Dihydroxy-5-isopropylphenyl)-N-ethyl-4-(1-isopropyl-1H-pyrazol-3-yl)isoxazole-3-carboxamide]",< 500
500 to 1000,"CCNC(=O)c1noc(-c2cc(C(C)C)c(O)cc2O)c1-c1noc(OC)n1 [Compound I-86, 5-(2,4-Dihydroxy-5-isopropylphenyl)-N-ethyl-4-(5-methoxy-1,2,4-oxadiazol-3-yl)isoxazole-3-carboxamide]",< 500
< 500,"CCNC(=O)c1noc(-c2cc(C(C)C)c(O)cc2O)c1-c1cc(CF)no1 [Compound I-28, 5-(2,4-Dihydroxy-5-isopropylphenyl)-N-ethyl-3′-(fluoromethyl)-4,5′-biisoxazole-3-carboxamide]",< 500
500 to 1000,"CCNC(=O)c1noc(-c2cc(C(C)C)c(O)cc2O)c1-c1noc(C(Cl)(Cl)Cl)n1 [Compound I-70, 5-(2,4-Dihydroxy-5-isopropylphenyl)-N-ethyl-4-(5-(trichloromethyl)-1,2,4-oxadiazol-3-yl)isoxazole-3-carboxamide]",500 to 1000

SMILES,IC50 (yeast HSP90) [nM],IC50 [1] [nM]
"CCNC(=O)c1noc(-c2cc(C(C)C)c(O)cc2O)c1-c1cc(COS(C)(=O)=O)no1 [Compound I-32, (5-(2,4-Dihydroxy-5-isopropylphenyl)-3-(ethylcarbamoyl)-4,5′-biisoxazol-3′-yl)methyl methanesulfonate]",< 500,< 500
